Patent US10034915B2, “Small heat shock proteins and active fragments thereof as a therapy for inflammation and ischemia” (The Board of Trustees of the Leland Stanford Junior …, priority 2011, dated 2018)
Entries after “also recorded” stand apart in the source; their conditions may differ.

Assays:
HSPB5−/− EAE mice = assay: EAE in 129Sv HSPB5−/− mice immunized with MOG35-55/CFA; format: in vivo, mouse
Procedure: Efficacy of HSPB5 73-92 in EAE in HSPB5 deficient mice. We tested whether HSPB5 73-92 alone was sufficient to rescue EAE in alpha B crystallin deficient (HSPB5−/−) mice.
EAE induction and scoring. Mice were immunized subcutaneously with 100 μL of myelin oligodendrocyte glycoprotein (MOG) peptide 35-55 (2 mg/mL) and Complete Freund's adjuvant (CFA) (4 mg/mL) on Day 0. […] […] Mice were scored every day on a clinical scoring system: 0, healthy mouse; 1, limp tail; 2, weak hindlimbs; 3, complete hindlimb paralysis; 4, weak forelimbs and paralyzed hindlimbs; 5, dead.

[1] = tested on: pro-inflammatory cytokines of MOG stimulated splenocytes; assay: Peripheral immune cell activation: cytokine production by MOG stimulated splenocytes of treated MOG immunized mice (ELISA); design: species or system mouse; settings: mice treated in vivo; splenocytes from MOG immunized mice
Procedure: Peripheral immune cell activation and cytokine analysis. Spleens and lymph nodes were isolated from mice 9 days after immunization with MOG35-55 and CFA. Spleens were mechanically disrupted to isolate single cell splencytes suspension. Cells were cultured in flat bottomed, 96-well plates in media (RPMI 1640 supplemented with […] L-glutamine, 1 mM sodium pyruvate, 0.1 mM non-essential amino acids, 100 U/mL penicillin, 0.1 mg/mL streptomycin, 0.5 uM 2-mercaptoethanol, and 10% fetal calf serum). Cells were stimulated with MOG35-55 (5 ug/mL, 10 ug/mL, and 20 ug/mL). For all activation assays, splenocytes were pooled from three mice per group and triplicate wells were plated. Supernatants of cells were collected at the time of peak production for each cytokine (48 hrs: IL-2, IL-12p40, IL-6; 72 hrs: TNFα and IFNγ; 96 hrs: IL-17; 120 hrs: IL-10). Cytokines were measured in the supernatants using anti-mouse OPTEIA ELISA kits (BD Pharmingen for IFNγ, IL-10, IL-2, IL-6, and IL-12p40; R&D Systems for IL-17 and TNFα).

EAE mice [2] = assay: EAE in 129Sv WT mice immunized with MOG35-55/CFA, clinical scoring; format: in vivo, mouse; settings: prevention paradigm
[3] = tested on: partially denatured proteins; settings: in vitro, literature; cited from earlier work
EAE mice [4] = assay: EAE in 129Sv WT mice immunized with MOG35-55/CFA, clinical scoring; format: in vivo, mouse; settings: peptide every other day from peak of disease (10 μg, or 1 μg equimolar to 10 μg protein)
Procedure: To investigate if the therapeutic efficacy of HSPB5 is a common feature of the whole family of small heat shock proteins, we expressed recombinant HSPB1, HSPB4, and HSPB5. We then treated EAE mice every other day starting at the peak of disease, when clinical paralysis is apparent, with an intraperitoneal (IP) administration of 10 μg of either HSPB1, HSPB4, HSPB5, or PBS as the vehicle control. […] Treating mice in vivo with HSPB1, HSPB4, or HSPB5 led to a reduction in the production of pro-inflammatory cytokines by MOG stimulated splenocytes taken from MOG immunized mice (FIG. 1c). Improvement of the clinical score was dependent on continued dosing of the sHSP. After dosing was stopped, symptoms returned, and paralysis worsened after 96 hours.
Therapeutic Peptides from HSPB5 in EAE. […] We made a series of overlapping, 15-mer peptide fragments of HSPB5 and treated mice at the peak of disease with 10 μg of each peptide every other day, using HSPB5 as a positive control and PBS as a negative control.
EAE induction and scoring. Mice were immunized subcutaneously with 100 μL of myelin oligodendrocyte glycoprotein (MOG) peptide 35-55 (2 mg/mL) and Complete Freund's adjuvant (CFA) (4 mg/mL) on Day 0. […] Mice were randomized at the peak of disease into the treatment groups where they received 10 ug/200 μL of sHSP, 1 μg/200 uL of sHSP peptide, or 200 μL of PBS (vehicle) every other day. Mice were scored every day on a clinical scoring system: 0, healthy mouse; 1, limp tail; 2, weak hindlimbs; 3, complete hindlimb paralysis; 4, weak forelimbs and paralyzed hindlimbs; 5, dead.

DRFSVNLDVKHFSPEELKVK [HSPB5 73-92]
disease scores (HSPB5−/− EAE mice; 10 ug peptide every other day from peak of disease): lower disease scores; also recorded: sufficient to ameliorate disease | incidence of disease, Day 11 (HSPB5−/− EAE mice; treatment from Day 0): 0% | incidence of disease, Day 12 (HSPB5−/− EAE mice; treatment from Day 0): 0% | incidence of disease, Day 13 (HSPB5−/− EAE mice; treatment from Day 0): 11% | incidence of disease, Day 14 (HSPB5−/− EAE mice; treatment from Day 0): 33% | incidence of disease, Day 15 (HSPB5−/− EAE mice; treatment from Day 0): 33% | incidence of disease, Day 16 (HSPB5−/− EAE mice; treatment from Day 0): 33% | incidence of disease, Day 17 (HSPB5−/− EAE mice; treatment from Day 0): 66% | incidence of disease, Day 18 (HSPB5−/− EAE mice; treatment from Day 0): 66% | EAE clinical scores (HSPB5−/− EAE mice; treatment from Day 0, vs PBS): ameliorated EAE | onset of disease (HSPB5−/− EAE mice; treatment from Day 0, vs PBS): delayed onset of disease | EAE clinical scores (HSPB5−/− EAE mice; treatment from Day 0, vs PBS, listed as B5 73-92): lower EAE clinical scores | production of pro-inflammatory cytokines by MOG stimulated splenocytes [1]: decrease peripheral immune activation | disease severity (EAE mice [2]; 10 μg peptide every day from Day 0): ameliorated EAE | disease severity (EAE mice [2]; 10 μg peptide every day from Day 0, listed as B5 73-92): lower disease severity | onset of disease (EAE mice [2]; treatment from Day 0): delayed onset of disease | molecular chaperone activity [3]: important for molecular chaperone activity | therapeutic efficacy of peptide in EAE (clinical scores) (EAE mice [4]): comparably therapeutic; also recorded: as therapeutic as HSPB5 71-85
